Results as given in patent US20180099931A1 (AbbVie S.à.r.l., priority 2016, published 2018).
Like-named read-outs stand apart in the source and are kept apart here.

Biological target: T1, F508delCFTR (Homo sapiens, UniProt P13569, DEL508-508)
T1 construct: expressed in transfected cells; host or cells: CFBE41o- human lung-derived epithelial cells (CFBE4lo-F508delCFTR-HRP), doxycycline-inducible
Assay: Cell Surface Expression-Horse Radish Peroxidase (CSE-HRP) Assay;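 for Maximum % activity (with co-corrector): co-corrector and positive control are both the same reference corrector at 2 µM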;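 for Maximum % activity (without co-corrector): percent of the 2 µM on-plate positive control corrector response above DMSO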
Assay type: cell-based
Settings: CSE-HRP; for Maximum % activity (with co-corrector): with co-corrector (2 μM); for Maximum % activity (with co-corrector) / Emax: maximum at any tested concentration, normalized to on-plate positive control; for Emax: without co-corrector, read-out: Maximum % activity (without co-corrector)
Procedure: Cell Surface Expression-Horse Radish Peroxidase (CSE-HRP) Assay;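 for Maximum % activity (with co-corrector): co-corrector and positive control are both the same reference corrector at 2 µM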;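 for Maximum % activity (without co-corrector): percent of the 2 µM on-plate positive control corrector response above DMSO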
The development was achieved by expressing the F508delCFTR mutation along with a horseradish peroxidase (HRP) in the fourth exofacial loop, and then measuring the HRP activity using luminescence readout from these cells, CFBE4lo-F508delCFTR-HRP, that were incubated overnight with the test corrector compounds, either without or with the co-corrector. […] The test compounds were then added either without or with a co-corrector at the required concentrations and further incubated for 18-24 hours at 33° C. The highest concentration tested was 20 μM with an 8-point concentration response curve using a 3-fold dilution in both the test compound without or with the co-corrector. Three replicate plates were run to determine one EC50. All plates contained negative controls (dimethyl sulfoxide, DMSO) and positive control (2 μM of 3-[(2R,4R)-4-({[1-(2,2-difluoro-1,3-benzodioxol-5-yl)cyclopropyl]carbonyl}amino)-7-methoxy-3,4-dihydro-2H-chromen-2-yl]benzoic acid) as well as on-plate concentration response of the positive control. […] The raw counts from the experiment were analyzed using Accelrys® Assay Explorer v3.3.
1−[3*SDPositive Control+3*SDNegative Control/Absolute(MeanPositive Control−MeanNegative Control)]
wherein “SD” is standard deviation.
The % activity measured at each of the 8 test concentrations of the test compound added either without or with a co-corrector (2 μM of 3-[(2R,4R)-4-({[1-(2,2-difluoro-1,3-benzodioxol-5-yl)cyclopropyl]carbonyl}amino)-7-methoxy-3,4-dihydro-2H-chromen-2-yl]benzoic acid) was normalized to the on-plate positive control using the following formulae:
% activity(Test compound without co-corrector)=[(test compound without co-corrector response−DMSO response)/(positive control response−DMSO response)]*100
% activity(Test compound with co-corrector)=[(test compound with co-corrector response−DMSO response)/(positive control response−DMSO response)]*100
The maximum % activity achieved for the test compound either without or with a co-corrector at any tested concentration is presented in Table 4 along with the respective EC50's calculated using the following general sigmoidal curve with variable Hill slope equation (described as Model 42 in the Accelrys® Assay Explorer v3.3 software):
General sigmoidal curve with concentration, response, top, bottom, EC50 and Hill slope. This model describes a sigmoidal curve with an adjustable baseline, a. The equation can be used to fit curves where response is either increasing or decreasing with respect to the independent variable, “x”.
“x” is a concentration of drug under test. “y” is the response. “a” is the maximum response, and “d” is the minimum response “c” is the inflection point (EC50) for the curve. That is, “y” is halfway between the lower and upper asymptotes when x=c. “b” is the slope-factor or Hill coefficient. The sign of b is positive when the response increases with increasing dose and is negative when the response decreases with increasing dose (inhibition).

[1] = test compound without co-corrector, read-out: EC50 (without co-corrector)
[2] = with co-corrector (2 μM of 3-[(2R,4R)-4-({[1-(2,2-difluoro-1,3-benzodioxol-5-yl)cyclopropyl]carbonyl}amino)-7-methoxy-3,4-dihydro-2H-chromen-2-yl]benzoic acid), read-out: EC50 (with co-corrector)

T1 sequence (P13569 with tags, fused parts or gaps DEL508-508): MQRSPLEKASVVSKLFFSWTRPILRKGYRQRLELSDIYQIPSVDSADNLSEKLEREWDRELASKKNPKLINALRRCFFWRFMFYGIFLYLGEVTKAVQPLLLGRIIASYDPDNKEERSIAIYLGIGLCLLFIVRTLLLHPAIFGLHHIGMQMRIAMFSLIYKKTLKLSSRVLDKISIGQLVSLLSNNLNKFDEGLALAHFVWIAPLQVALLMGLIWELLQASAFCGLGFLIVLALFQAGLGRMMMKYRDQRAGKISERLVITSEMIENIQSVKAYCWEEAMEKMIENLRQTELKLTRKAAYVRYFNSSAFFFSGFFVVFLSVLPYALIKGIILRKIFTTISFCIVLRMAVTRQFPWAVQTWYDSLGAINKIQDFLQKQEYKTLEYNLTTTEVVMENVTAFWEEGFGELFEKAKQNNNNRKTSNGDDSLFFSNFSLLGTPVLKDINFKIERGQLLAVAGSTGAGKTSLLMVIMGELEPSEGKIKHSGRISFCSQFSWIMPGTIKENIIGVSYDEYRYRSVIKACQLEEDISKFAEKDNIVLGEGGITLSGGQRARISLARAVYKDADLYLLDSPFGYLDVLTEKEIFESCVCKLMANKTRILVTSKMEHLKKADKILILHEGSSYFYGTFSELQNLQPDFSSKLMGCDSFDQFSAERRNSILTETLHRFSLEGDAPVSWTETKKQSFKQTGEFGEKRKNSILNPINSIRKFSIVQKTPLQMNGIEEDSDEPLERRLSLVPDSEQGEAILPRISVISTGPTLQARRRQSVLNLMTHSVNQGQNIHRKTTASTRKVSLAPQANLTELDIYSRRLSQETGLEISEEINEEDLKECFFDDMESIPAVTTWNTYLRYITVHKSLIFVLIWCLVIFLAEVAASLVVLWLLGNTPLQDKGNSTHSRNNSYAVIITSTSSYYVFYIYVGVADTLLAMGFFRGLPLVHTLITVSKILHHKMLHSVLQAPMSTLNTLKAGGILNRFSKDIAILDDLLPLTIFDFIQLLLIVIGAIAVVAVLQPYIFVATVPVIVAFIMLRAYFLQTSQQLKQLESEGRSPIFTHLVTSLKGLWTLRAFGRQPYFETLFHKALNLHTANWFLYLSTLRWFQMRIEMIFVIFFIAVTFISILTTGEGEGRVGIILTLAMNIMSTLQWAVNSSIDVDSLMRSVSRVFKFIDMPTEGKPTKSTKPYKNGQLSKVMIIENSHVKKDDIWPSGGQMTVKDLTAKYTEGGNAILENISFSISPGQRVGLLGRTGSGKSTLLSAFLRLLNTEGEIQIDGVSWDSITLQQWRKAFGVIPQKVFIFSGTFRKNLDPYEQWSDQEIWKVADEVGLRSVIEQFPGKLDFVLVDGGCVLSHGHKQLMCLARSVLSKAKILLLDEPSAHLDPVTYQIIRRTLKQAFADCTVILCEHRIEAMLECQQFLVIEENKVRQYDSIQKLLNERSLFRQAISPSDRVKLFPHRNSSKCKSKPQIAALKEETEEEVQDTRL

Row | SMILES | EC50 [1] | EC50 [2] | Maximum % activity (with co-corrector) | Emax
1 | COc1cc(C(F)(F)F)ccc1CN[C@@H]1[C@@H](C(C)(C)C)[C@H](C(=O)O)N(C(=O)[C@@H]2CCCCO2)[C@@H]1c1ccccc1 (racemic) [II-49] | 1000 to 10000 nM | 1000 to 10000 nM | +++ (≥350) | 100 to 200%
2 | COc1cc(C(F)(F)F)ccc1CN[C@@H]1[C@@H](C(C)(C)C)[C@H](C(=O)O)N(C(=O)C2CCCCC2)[C@@H]1c1cccnc1N(C)C (racemic) [II-51] | 1000 to 10000 nM | 1000 to 10000 nM | +++ (≥350) | 100 to 200%
3 | COc1ncc(C(F)(F)F)cc1CN[C@@H]1[C@@H](C(C)(C)C)[C@H](C(=O)O)N(C(=O)C2CCCCC2)[C@@H]1c1cccnc1N(C)C (racemic) [II-52] | 1000 to 10000 nM | 1000 to 10000 nM | +++ (≥350) | 100 to 200%
4 | Cc1cc(C(F)(F)F)cc(N[C@H]2[C@H](C(C)(C)C)[C@@H](C(=O)O)N(C(=O)C3CCCCC3)[C@H]2c2ccccn2)n1 (racemic) [II-53] | 1000 to 10000 nM | 1000 to 10000 nM | ++ (≥150 and <350) | < 100%
5 | Cc1cc(C(F)(F)F)cc(N[C@@H]2[C@@H](C(C)(C)C)[C@H](C(=O)O)N(C(=O)Cc3ccccc3)[C@@H]2c2ccccc2)n1 (racemic) [II-55] | > 10000 nM | 1000 to 10000 nM | ++ (≥150 and <350) | < 100%
6 | COc1ccc(C(F)(F)F)cc1CN[C@@H]1[C@@H](C(C)(C)C)[C@H](C(=O)O)N(C(=O)OC(C)C)[C@@H]1c1ccccc1N(C)C (racemic) [II-56] | 1000 to 10000 nM | 1000 to 10000 nM | +++ (≥350) | 100 to 200%
7 | COc1cc(C(F)(F)F)ccc1CN[C@@H]1[C@@H](C(C)(C)C)[C@H](C(=O)O)N(C(=O)OC(C)C)[C@@H]1c1ccccc1N(C)C (racemic) [II-57] | 1000 to 10000 nM | 1000 to 10000 nM | +++ (≥350) | 100 to 200%
8 | COc1ccc(C(F)(F)F)cc1CN[C@H]1[C@H](C(C)(C)C)[C@@H](C(=O)O)N(C(=O)C2CCCO2)[C@H]1c1ccccc1 (mixture of isomers) [II-59] | 1000 to 10000 nM | 1000 to 10000 nM | +++ (≥350) | 100 to 200%
9 | COc1cc(C(F)(F)F)ccc1CN[C@H]1[C@H](C(C)(C)C)[C@@H](C(=O)O)N(C(=O)C2CCCO2)[C@H]1c1ccccc1 (mixture of isomers) [II-60] | 1000 to 10000 nM | 1000 to 10000 nM | +++ (≥350) | 100 to 200%
10 | COc1ccc(Cl)cc1CN[C@H]1[C@H](C(C)(C)C)[C@@H](C(=O)O)N(C(=O)C2CCCO2)[C@H]1c1ccccc1 (mixture of isomers) [II-61] | 1000 to 10000 nM | 1000 to 10000 nM | +++ (≥350) | 100 to 200%
11 | COc1ccc(C(F)(F)F)cc1CN[C@@H]1[C@@H](C(C)(C)C)[C@H](C(=O)O)N(C(=O)[C@@H](C)Oc2ccccc2)[C@@H]1c1ccccc1 (racemic) [II-66] | 1000 to 10000 nM | 1000 to 10000 nM | ++ (≥150 and <350) | < 100%
12 | COc1ccc(C(F)(F)F)cc1CN[C@@H]1[C@@H](C(C)(C)C)[C@H](C(=O)O)N(C(=O)C2CCC(F)(F)CC2)[C@@H]1c1ccccc1 (racemic) [II-68] | 1000 to 10000 nM | 1000 to 10000 nM | +++ (≥350) | < 100%
13 | COc1cc(C(F)(F)F)ccc1CN[C@@H]1[C@@H](C(C)(C)C)[C@H](C(=O)O)N(C(=O)C2CCC(F)(F)CC2)[C@@H]1c1ccccc1 (racemic) [II-69] | 1000 to 10000 nM | 1000 to 10000 nM | ++ (≥150 and <350) | < 100%
14 | COc1ccc(C(F)(F)F)cc1CN[C@@H]1[C@@H](C(C)(C)C)[C@H](C(=O)O)N(C(=O)C2CCC3(CC2)CC3)[C@@H]1c1ccccc1 (racemic) [II-70] | 1000 to 10000 nM | 1000 to 10000 nM | ++ (≥150 and <350) | < 100%
15 | COc1ccc(C#N)cc1CN[C@@H]1[C@@H](C(C)(C)C)[C@H](C(=O)O)N(C(=O)C2CCCCC2)[C@@H]1c1ccccc1 (racemic) [II-71] | 1000 to 10000 nM | 1000 to 10000 nM | ++ (≥150 and <350) | < 100%
16 | Cc1ccc(C(F)(F)F)cc1CN[C@@H]1[C@@H](C(C)(C)C)[C@H](C(=O)O)N(C(=O)C2CCCCC2)[C@@H]1c1ccccc1 (racemic) [II-72] | < 1000 nM | 1000 to 10000 nM | ++ (≥150 and <350) | < 100%
17 | COc1ccc(C(C)C)cc1CN[C@@H]1[C@@H](C(C)(C)C)[C@H](C(=O)O)N(C(=O)C2CCCCC2)[C@@H]1c1ccccc1 (racemic) [II-73] | 1000 to 10000 nM | 1000 to 10000 nM | +++ (≥350) | > 200%
18 | COc1cc(C#N)ccc1CN[C@@H]1[C@@H](C(C)(C)C)[C@H](C(=O)O)N(C(=O)C2CCCCC2)[C@@H]1c1ccccc1 (racemic) [II-74] | 1000 to 10000 nM | 1000 to 10000 nM | +++ (≥350) | < 100%
19 | CC(C)(C)[C@@H]1[C@@H](NCc2cc(Cl)ccc2OC(F)(F)F)[C@@H](c2ccccc2)N(C(=O)C2CCCCC2)[C@H]1C(=O)O (racemic) [II-75] | < 1000 nM | 1000 to 10000 nM | ++ (≥150 and <350) | < 100%
20 | CC(C)(C)[C@@H]1[C@@H](NCc2ccccc2OC(F)(F)F)[C@@H](c2ccccc2)N(C(=O)C2CCCCC2)[C@H]1C(=O)O (racemic) [II-76] | 1000 to 10000 nM | 1000 to 10000 nM | +++ (≥350) | < 100%
21 | COc1nc(C(F)(F)F)ccc1CN[C@@H]1[C@@H](C(C)(C)C)[C@H](C(=O)O)N(C(=O)C2CCCCC2)[C@@H]1c1ccccc1 (racemic) [II-77] | 1000 to 10000 nM | 1000 to 10000 nM | +++ (≥350) | 100 to 200%
22 | COc1ccc(Cl)cc1CN[C@@H]1[C@@H](C(C)(C)OC)[C@H](C(=O)O)N(C(=O)C2CCCCC2)[C@@H]1c1ccccc1 (racemic) [II-79] | 1000 to 10000 nM | 1000 to 10000 nM | +++ (≥350) | > 200%
23 | COc1ccc(C(F)(F)F)cc1CN[C@@H]1[C@@H](C(C)(C)C)[C@H](C(=O)O)N(C(=O)C2COCCO2)[C@@H]1c1ccccc1 (mixture of isomers) [II-85] | 1000 to 10000 nM | 1000 to 10000 nM | ++ (≥150 and <350) | < 100%
